Measured values taken from publication PMC2099433, “The binding site for neohesperidin dihydrochalcone at the human sweet taste receptor” (BMC Structural Biology, 2007).
Where a SMILES comes first, the peptide text is derived from it.

Molecular target: T1, hTAS1R2/hTAS1R3 (Homo sapiens, UniProt Q7RTX0+Q8TE23)
T1 construct: expressed in transfected cells; host or cells: HEK293T cells stably expressing G16Gust44
T1 sequence (Q8TE23 20-839): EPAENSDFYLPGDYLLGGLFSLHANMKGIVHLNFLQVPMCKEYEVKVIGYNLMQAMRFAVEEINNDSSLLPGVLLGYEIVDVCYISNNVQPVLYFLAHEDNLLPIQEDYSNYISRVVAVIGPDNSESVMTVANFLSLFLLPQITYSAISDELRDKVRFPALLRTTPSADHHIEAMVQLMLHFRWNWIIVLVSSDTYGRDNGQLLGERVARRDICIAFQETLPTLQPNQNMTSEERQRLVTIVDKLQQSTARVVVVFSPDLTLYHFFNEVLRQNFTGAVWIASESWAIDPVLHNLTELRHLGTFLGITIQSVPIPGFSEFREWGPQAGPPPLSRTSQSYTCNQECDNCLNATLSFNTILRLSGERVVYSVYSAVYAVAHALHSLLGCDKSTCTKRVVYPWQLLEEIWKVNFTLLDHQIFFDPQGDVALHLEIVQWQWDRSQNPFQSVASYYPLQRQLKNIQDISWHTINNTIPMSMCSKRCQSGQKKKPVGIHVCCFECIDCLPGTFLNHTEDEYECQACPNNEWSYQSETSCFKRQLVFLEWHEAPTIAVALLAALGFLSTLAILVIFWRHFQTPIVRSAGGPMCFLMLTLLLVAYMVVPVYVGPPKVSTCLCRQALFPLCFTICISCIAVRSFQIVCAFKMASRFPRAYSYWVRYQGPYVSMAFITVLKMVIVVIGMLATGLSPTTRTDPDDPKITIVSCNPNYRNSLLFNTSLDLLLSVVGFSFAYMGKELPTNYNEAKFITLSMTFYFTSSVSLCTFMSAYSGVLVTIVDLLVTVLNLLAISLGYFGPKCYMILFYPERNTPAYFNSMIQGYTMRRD
T1 sequence (Q7RTX0 21-852): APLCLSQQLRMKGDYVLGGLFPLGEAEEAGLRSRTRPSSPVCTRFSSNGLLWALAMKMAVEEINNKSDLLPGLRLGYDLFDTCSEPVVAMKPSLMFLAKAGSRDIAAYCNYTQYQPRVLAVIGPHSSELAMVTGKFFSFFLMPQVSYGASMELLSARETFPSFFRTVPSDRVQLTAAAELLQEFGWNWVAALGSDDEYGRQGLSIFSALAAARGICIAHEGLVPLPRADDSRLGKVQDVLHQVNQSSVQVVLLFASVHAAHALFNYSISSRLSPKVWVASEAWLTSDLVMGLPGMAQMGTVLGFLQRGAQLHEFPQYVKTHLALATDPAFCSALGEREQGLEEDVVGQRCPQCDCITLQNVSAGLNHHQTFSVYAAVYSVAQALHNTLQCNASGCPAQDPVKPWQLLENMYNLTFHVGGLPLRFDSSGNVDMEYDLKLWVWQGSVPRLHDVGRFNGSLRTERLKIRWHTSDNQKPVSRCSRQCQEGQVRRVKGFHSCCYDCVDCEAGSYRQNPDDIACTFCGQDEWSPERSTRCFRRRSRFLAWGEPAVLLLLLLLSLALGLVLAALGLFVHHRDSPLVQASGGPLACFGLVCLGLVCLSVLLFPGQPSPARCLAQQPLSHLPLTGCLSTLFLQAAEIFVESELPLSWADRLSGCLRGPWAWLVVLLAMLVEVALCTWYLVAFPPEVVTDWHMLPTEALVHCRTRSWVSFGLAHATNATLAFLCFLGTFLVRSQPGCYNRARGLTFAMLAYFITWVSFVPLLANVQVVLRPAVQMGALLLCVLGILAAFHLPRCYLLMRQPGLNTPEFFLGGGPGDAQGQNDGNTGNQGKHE
Test: Calcium response (FLIPR) of HEK293T-G16Gust44 cells, wild type receptor
Format: cell-based
Details: for EC50 / Emax: wt receptor; for EC50: average ± SD, at least three experiments; for Emax: read-out: maximal signal (% of wt)
Source text: In order to elucidate the putative binding site for NHDC, we cotransfected mixtures of plasmid DNAs for the rat and human TAS1R2 and TAS1R3 receptor subunits in HEK293T cells stably expressing the chimeric G-protein G16Gust44 and measured cellular calcium responses by fluorometry following bath application of various sweet tasting compounds. […].
The cDNAs for TAS1Rs tagged at the C-terminus with the herpes simplex virus glycoprotein D (HSV) were transiently transfected into HEK293T cells stably expressing the chimeric G-protein subunit G16Gust44 [44] using Lipofectamine 2000 (Invitrogen, Carlsbad, CA) according to the manufacturer's protocol. 3–4 hours after transfection, DMEM was replaced by low-glucose DMEM supplemented with GlutaMAX and 10% dialyzed FBS (Invitrogen, Carlsbad, CA). 24 h post transfection, cells were loaded for 1 h with the calcium sensitive dye Fluo4-AM (2 μg/ml in DMEM, Molecular Probes, Carlsbad, CA). Cells were washed 3x in solution C1 (130 mM NaCl, 5 mM KCl, 10 mM Hepes, 2 mM CaCl2, and 5 mM Glucose, pH 7,4). We monitored calcium mobilization following receptor stimulation with sweet tastants by an automated fluorometric imaging plate reader (FLIPR, Molecular Devices, Sunnyvale, CA). Compounds used as stimuli (Sigma-Aldrich, St. Louis, MO; Merck, Whitehouse Station, NJ) were dissolved in C1 solution. All data were collected from at least three independent experiments carried out in duplicate. The obtained calcium signals were corrected for the response of mock transfected cells and normalized to the fluorescence of cells prior to the application of the stimulus using ΔF/F = (F-F0)/F0. […]

## COc1ccc(CCC(=O)c2c(O)cc(O[C@@H]3O[C@H](CO)[C@@H](O)[C@H](O)[C@H]3O[C@@H]3O[C@@H](C)[C@H](O)[C@@H](O)[C@H]3O)cc2O)cc1O [NHDC, neohesperidin dihydrochalcone]
Human sweet taste receptor
  receptor activation: activates
  EC50: 0.1 ± 0.06 mM
  Emax: 100%

## COC(=O)[C@H](Cc1ccccc1)NC(=O)[C@@H](N)CC(=O)O [aspartame] (HELM PEPTIDE1{D.F.[CO[*:1]]}$$$$V2.0)
  EC50: 1.3 ± 0.1 mM
  Emax: 100%

## O=S(=O)(O)NC1CCCCC1 [cyclamate]
  EC50: 1.9 ± 0.1 mM
